Experimental data taken from US6608061B2, “Bisaryl compound and medicament for cancer treatment comprising the same” (Kyoma Hakko Kogyo Co., Ltd., priority 1997, dated 2003).
Read-outs that look alike come from different tables or passages of the source.

Columns and labels:
[1] = target: T1, human RNR (purified R1 and R2 subunits) (Homo sapiens, UniProt P23921+P31350); experiment: In vitro measurement of human RNR inhibitory activity (conversion of CDP to dCDP, HPLC); assay type: biochemical; details: 100 μM CDP, 37° C., 30 minutes, read-out: RNR Inhibition (IC50)
T1 construct: made in house; host or cells: Escherichia coli BL21(λDE3)pLysS, plasmids pETR1 and pETR2 (pET3a backbone)
T1 sequence (P23921 1-792): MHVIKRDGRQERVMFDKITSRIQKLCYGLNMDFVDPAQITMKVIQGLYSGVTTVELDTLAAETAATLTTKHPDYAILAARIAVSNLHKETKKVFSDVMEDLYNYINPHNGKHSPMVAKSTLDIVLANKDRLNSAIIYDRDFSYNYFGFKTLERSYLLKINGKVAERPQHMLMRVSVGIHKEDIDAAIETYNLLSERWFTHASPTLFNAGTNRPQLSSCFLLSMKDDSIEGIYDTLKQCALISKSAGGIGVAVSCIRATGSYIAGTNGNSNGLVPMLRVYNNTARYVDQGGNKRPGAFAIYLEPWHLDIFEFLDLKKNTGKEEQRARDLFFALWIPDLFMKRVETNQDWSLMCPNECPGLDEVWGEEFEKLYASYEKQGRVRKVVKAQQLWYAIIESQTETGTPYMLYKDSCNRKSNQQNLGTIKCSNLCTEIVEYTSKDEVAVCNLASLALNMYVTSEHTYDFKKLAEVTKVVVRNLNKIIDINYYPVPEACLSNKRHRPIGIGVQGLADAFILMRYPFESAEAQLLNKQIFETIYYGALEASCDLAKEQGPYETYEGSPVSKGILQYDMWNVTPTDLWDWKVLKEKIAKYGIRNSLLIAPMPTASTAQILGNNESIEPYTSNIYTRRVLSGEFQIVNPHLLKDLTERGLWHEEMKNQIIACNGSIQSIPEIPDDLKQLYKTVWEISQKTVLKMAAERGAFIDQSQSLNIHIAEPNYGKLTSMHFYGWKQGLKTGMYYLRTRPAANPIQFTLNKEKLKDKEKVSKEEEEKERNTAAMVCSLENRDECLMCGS
T1 sequence (P31350 1-389): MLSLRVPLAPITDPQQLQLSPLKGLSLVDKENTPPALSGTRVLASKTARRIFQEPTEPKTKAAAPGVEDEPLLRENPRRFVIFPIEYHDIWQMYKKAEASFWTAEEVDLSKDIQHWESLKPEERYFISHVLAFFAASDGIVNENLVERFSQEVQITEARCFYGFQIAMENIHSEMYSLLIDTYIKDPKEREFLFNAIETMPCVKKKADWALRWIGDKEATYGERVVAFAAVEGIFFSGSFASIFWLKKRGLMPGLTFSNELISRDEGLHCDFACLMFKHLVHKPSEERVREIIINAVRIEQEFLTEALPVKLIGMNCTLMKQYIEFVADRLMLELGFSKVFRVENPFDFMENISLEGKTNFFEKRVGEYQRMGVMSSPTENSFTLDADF

[2] = test system: HeLa S3 cells; experiment: Test for growth inhibition of HeLa S3 cells; assay type: cell-based
Method: Test for Growth Inhibition of Hela S3 Cells
HeLa S3 cells prepared at 1×10^4 cells/ml in MEM culture medium containing 10% fetal bovine serum and 2 mM glutamine were added to each well of a 96-well microtiter plate (0.1 ml for each well). The cells were cultured at 37° C. in a CO2 incubator for 24 hours, and then 0.05 ml of test compound appropriately diluted with the above medium was added to each well, and then the mixture was cultured at 37° C. in a CO2 incubator for 72 hours. After the culture supernatant was removed, each well was washed with 0.1 ml of PBS buffer twice, and 0.1 ml of the aforementioned medium was added to each well again.
Cell Proliferation Kit II (Boehringer Mennheim) was used for measurement of cell number in each well. After a coloring reaction reagent was added, the plate was warmed to 37° C. in a CO2 incubator for 3 hours. Then, absorbances at 490 nm and 655 nm were measured by a microplate reader, and a value (difference of absorbance) was calculated for each well by subtracting the absorbance at […] from the absorbance at 490 nm. By comparing the differences of absorbance for cells without treatment and cells treated with a test compound at a known concentration, a concentration of test compound which inhibited the cell growth by 50% was calculated, and the value obtained was determined as IC50. The values of RNR inhibitory activity obtained in Example 8, and the values of cell growth inhibitory activity obtained in Example 9 are shown in the following tables (the compound numbers used in the tables correspond to the compound numbers shown in the aforementioned tables).

[3] = test system: human lung cancer Lu-65 cells; experiment: Antineoplastic effect against human lung cancer Lu-65 cells transplanted to nude mice; assay type: in vivo, nude mice BALB/cAJcl-nu; details: Lu-65 s.c. in nude mice; 1000 (500 × 2) mg/kg/day intraperitoneally twice a day for 5 days; evaluation day 7
Description: Antineoplastic Effect Against Human Lung Cancer Lu-65 Cells
2 mm cubes (tumor fragments of 8 mm^3) of human lung cancer Lu-65 cells were subcutaneously transplanted to nude mice BALB/cAJcl-nu (CLEA JAPAN) on their abdomens. When the tumor volume reached to from 50 to 300 mm^3 after the transplantation, the mice were arbitrarily divided into groups each consisting of 5 mice, and intraperitoneally administered with a drug solution twice a day for 5 days. After weighing compounds, the drug solution was prepared before use by dissolving the drug in 99.5% ethanol (final concentration: 5%, analytical grade, Kanto Kagaku), adding CREMOPHOR EL (a derivative of caster oil and ethylene oxide, final concentration: 10%, Sigma Chemical) to the solution, and suspending the solution in physiological saline (Otsuka Physiological Saline for Injection, Otsuka Pharmaceutical). For evaluation of the effect, a tumor volume was calculated in accordance with Equation 1, a ratio of tumor volume (V) after the administration of drug solution to tumor volume (V0) before the administration of drug solution was calculated (V/V0), and the ratio was compared with that for the untreated group to determine T/C (Equation 2). [formula]

[4] = test system: human ovary cancer A2780 cells; experiment: Antineoplastic effect against human ovary cancer A2780 cells transplanted to nude mice; assay type: in vivo, nude mice BALB/cAJcl-nu; details: Mus musculus, read-out: Antitumor activity T/C
Description: Antineoplastic Effect Against Human Ovary Cancer A2780 Cells
2 mm cubes (tumor fragments of 8 mm^3) of human ovary cancer A2780 cells were subcutaneously transplanted to nude mice BALB/cAJcl-nu (CLEA JAPAN) in the abdomens. When the tumor volume reached to from 50 to 300 mm^3 after the transplantation, the mice were arbitrarily divided into groups each consisting of 5 mice, and intraperitoneally administered with a drug solution once a day for 5 days. After weighing compounds, the drug solution was prepared before use by dissolving the drug in 99.5% ethanol (final concentration: 5%, analytical grade, Kanto Kagaku) or N,N-dimethylacetamide (final concentration: 5%, analytical grade, Kanto Kagaku), adding CREMOPHOR EL (a derivative of caster oil and ethylene oxide, final concentration: 10%, Sigma Chemical) to the solution, and suspending the solution in physiological saline (Otsuka Physiological Saline for Injection, Otsuka Pharmaceutical). For evaluation of the effect, a tumor volume was calculated in accordance with Equation 1, a ratio of tumor volume (V) after the administration of drug solution to tumor volume (V0) before the administration of drug solution was calculation (V/V0), and the ratio was compared with that for the untreated group to determine T/C (Equation 2). In the table, administration dose, T/C and evaluation day are shown. [formula]

[5] = Homo sapiens, HeLa S3, 72 h, HeLa S3 cells, 72 hours with test compound, Cell Proliferation Kit II, read-out: Cell growth inhibition (IC50)
[6] = ip, 96 h, A2780 s.c. in nude mice, 500 mg/kg/day intraperitoneally once a day for 5 days, evaluation day 4
[7] = ip, 168 h, A2780 s.c. in nude mice, 500 mg/kg/day intraperitoneally once a day for 5 days, evaluation day 7

In the case of Oc1ccc(SCCOCCSc2ccc(O)cc2)cc1 [Compound 27], the IC50 [1] is reported as 500 nM, the IC50 ([2]; Homo sapiens, HeLa S3, 72 h, read-out: Cell growth inhibition (IC50, μM)) is reported as 1.53 µM and the “Antitumor activity T/C” value [3] is reported as 0.25. The response vs control in vivo at 500 mg/kg/day ([4]; A2780, ip, 168 h) was 46%.

Work on CCCN(CCSc1ccc(O)cc1)CCSc1ccc(O)cc1 [Compound 72] yielded an IC50 [1] of 1190 nM, an IC50 [2, 5] of 2.18 µM and a response vs control in vivo at 500 mg/kg/day [4, 6] of 50%.

N#CCN(CCSc1ccc(O)cc1)CCSc1ccc(O)cc1 [Compound 77] showed an IC50 [1] of 60 nM, an IC50 [2, 5] of 2.38 µM and a response vs control in vivo at 500 mg/kg/day [4, 6] of 54%.

For NC(=O)CCN(CCSc1ccc(O)cc1)CCSc1ccc(O)cc1 [Compound 78], the IC50 [1] was 310 nM, the IC50 [2, 5] was 1.61 µM and the response vs control in vivo at 500 mg/kg/day [4, 6] was 53%.

Molecule CN(C)C(=O)CCN(CCSc1ccc(O)cc1)CCSc1ccc(O)cc1 [Compound 79] has an IC50 [1] of 1370 nM, an IC50 [2, 5] of 3.06 µM and a response vs control in vivo at 500 mg/kg/day [4, 6] of 40%.

Work on Oc1ccc(SCCN(CCSc2ccc(O)cc2)Cc2ccncc2)cc1 [Compound 91] yielded an IC50 [1] of 1690 nM, an IC50 [2, 5] of 2.72 µM and a response vs control in vivo at 500 mg/kg/day [4, 6] of 48%.

With Oc1ccc(CN(CCSc2ccc(O)cc2)CCSc2ccc(O)cc2)cc1 [Compound 94] the IC50 [1] was 460 nM, the IC50 [2, 5] was 4 µM and the response vs control in vivo at 500 mg/kg/day [4, 7] was 53%.

NC(=O)CN(CCSc1ccc(O)cc1)CCSc1ccc(O)cc1 [Compound 97] showed a melting point of 105 to 106 °C, an IC50 ([2]; HeLa S3 cells, 72 hours with test compound, Cell Proliferation Kit II, read-out: Cell growth inhibition (IC50)) of 0.88 µM and a response vs control in vivo at 500 mg/kg/day [4, 7] of 43%.

With Oc1ccc(SCCN(CCSc2ccc(O)cc2)Cc2ccccn2)cc1 [Compound 100] the melting point was 80 to 81 °C, the IC50 [1] was 1580 nM and the IC50 [2, 5] was 4.97 µM.

For OCCN(CCSc1ccc(O)cc1)CCSc1ccc(O)cc1 [Compound 102], the IC50 [1] was 690 nM, the IC50 [2, 5] was 1.42 µM and the response vs control in vivo at 500 mg/kg/day [4, 7] was 47%.

COCCCN(CCSc1ccc(O)cc1)CCSc1ccc(O)cc1 [Compound 103] showed an IC50 [1] of 2110 nM, an IC50 [2, 5] of 1.74 µM and a response vs control in vivo at 500 mg/kg/day [4, 6] of 50%.

In the case of Oc1ccc(SCCOCCSc2ccc(O)c(F)c2)cc1F [Compound 190], the melting point is reported as 87 to 88 °C, the IC50 [1] is reported as 1380 nM and the IC50 [2, 5] is reported as 16.9 µM.

In the case of NC(=O)C1CCCCN1C(=O)CN(CCSc1ccc(O)cc1)CCSc1ccc(O)cc1 (stereo not shown) [Compound 209], the IC50 [1] is reported as 2670 nM, the IC50 [2, 5] is reported as 3.09 µM and the response vs control in vivo at 500 mg/kg/day [4, 7] is reported as 50%.

With O=C(CN(CCSc1ccc(O)cc1)CCSc1ccc(O)cc1)Nc1ncccn1 [Compound 211] the IC50 [1] was 3240 nM, the IC50 [2, 5] was 3.04 µM and the response vs control in vivo at 500 mg/kg/day ([4]; ip, 216 h, A2780 s.c. in nude mice, 500 mg/kg/day intraperitoneally once a day for 5 days, evaluation day 9) was 37%.
